Laboratory results as given in paper PMC8286840, “Identifying SARS-CoV-2 antiviral compounds by screening for small molecule inhibitors of Nsp3 papain-like protease” (Biochemical Journal, 2021).
Counter-ions that a name gives are not always drawn. Like-named read-outs stand apart in the source and are kept apart here.

How the values were obtained:
[1] = molecular target: T1, SARS-CoV-2 PLpro (nsp3 1564–1878) (Severe acute respiratory syndrome coronavirus 2, UniProt P0DTD1); assay: biochemical; set-up: FRET-quenched peptide (Pro3) cleavage by PLpro, 10 min pre-incubation, slope over 20 min, normalised to no-compound control; settings: high concentration screen, read-out: % of control remaining
[2] = molecular target: T1, SARS-CoV-2 PLpro (nsp3 1564–1878); assay: biochemical; set-up: FRET-quenched peptide (Pro3) cleavage by PLpro, 10 min pre-incubation, slope over 20 min, normalised to no-compound control; settings: low concentration screen, read-out: % of control remaining

SMILES: COc1ccccc1OCCNCC(O)COc1cccc2[nH]c3ccccc3c12 (centres unmarked) [Carvedilol]
- remaining activity at 3.75 µM ([1]; Well no.=1569): 103%
- remaining activity at 3.75 µM ([1]; Well no.=4051): 104%
- remaining activity at 3.75 µM ([1]; Well no.=6702): 97.8%
- remaining activity at 1.25 µM ([2]; Well no.=1569): 99.6%
- remaining activity at 1.25 µM ([2]; Well no.=4051): 103%
- remaining activity at 1.25 µM ([2]; Well no.=6702): 97.7%

SMILES: CC(C)CC(=O)Nc1n[nH]c2c1CN(C(=O)C1CCN(C)CC1)C2(C)C [PHA-793887]
- remaining activity at 3.75 µM ([1]; Well no.=4907): 93.7%
- remaining activity at 1.25 µM ([2]; Well no.=4907): 94.3%

SMILES: Cc1cc(Nc2cc(N3CCN(C)CC3)nc(/C=C/c3ccccc3)n2)n[nH]1 [ENMD-2076 L-(+)-Tartaric acid]
- remaining activity at 3.75 µM ([1]; Well no.=5012): 89.1%
- remaining activity at 1.25 µM ([2]; Well no.=5012): 101%

SMILES: CC(=O)Nc1nc(C)c(-c2ccc(Cl)c(S(=O)(=O)NCCO)c2)s1 [PIK-93]
- remaining activity at 3.75 µM ([1]; Well no.=4911): 96.9%
- remaining activity at 1.25 µM ([2]; Well no.=4911): 95.7%

SMILES: N=c1ccn2c(n1)O[C@H]1[C@H](O)[C@@H](CO)O[C@H]12 [Cyclocytidine]
- remaining activity at 3.75 µM ([1]; Well no.=1936): 103%
- remaining activity at 1.25 µM ([2]; Well no.=1936): 96.5%

SMILES: CC(C(O)c1ccc(O)cc1)N1CCC(Cc2ccccc2)CC1 (centres unmarked) [Ifenprodil tartrate]
- remaining activity at 3.75 µM ([1]; Well no.=867): 103%
- remaining activity at 3.75 µM ([1]; Well no.=1685): 104%
- remaining activity at 1.25 µM ([2]; Well no.=867): 103%
- remaining activity at 1.25 µM ([2]; Well no.=1685): 102%

SMILES: C[N+](C)(C)CC(=O)O [Betaine hydrochloride]
- remaining activity at 3.75 µM ([1]; Well no.=77): 103%
- remaining activity at 1.25 µM ([2]; Well no.=77): 101%

SMILES: CCCCCCCC/C=C\CCCCCCCC(=O)NCCO [N-Oleoylethanolamine]
- remaining activity at 3.75 µM ([1]; Well no.=1086): 94.6%
- remaining activity at 1.25 µM ([2]; Well no.=1086): 96.9%

SMILES: Cc1ccc(-n2sc(=O)n(Cc3ccc(F)cc3)c2=O)cc1 [CCG 50014]
- remaining activity at 3.75 µM ([1]; Well no.=5215): 102%
- remaining activity at 1.25 µM ([2]; Well no.=5215): 105%

SMILES: CC1=C(/C=C/C(C)=C/C=C/C(C)=C/C(=O)Nc2ccc(O)cc2)C(C)(C)CCC1 [Retinoic acid p-hydroxyanilide]
- remaining activity at 3.75 µM ([1]; Well no.=708): 94.4%
- remaining activity at 1.25 µM ([2]; Well no.=708): 97.5%

SMILES: CN1[C@@H]2CC[C@H]1C[C@@H](OC(c1ccccc1)c1ccccc1)C2 [Benztropine mesylate]
- remaining activity at 3.75 µM ([1]; Well no.=177): 104%
- remaining activity at 1.25 µM ([2]; Well no.=177): 104%

SMILES: C=CCSC[C@H](N)C(=O)O [S-Allyl-L-cysteine]
- remaining activity at 3.75 µM ([1]; Well no.=5435): 97%
- remaining activity at 1.25 µM ([2]; Well no.=5435): 99.1%

SMILES: NC(=O)C[C@H](N)C(=O)O [L-Asparagine]
- remaining activity at 3.75 µM ([1]; Well no.=7741): 108%
- remaining activity at 1.25 µM ([2]; Well no.=7741): 106%

SMILES: C[C@H]1O[C@@H](O[C@H]2[C@@H](O)C[C@H](O[C@H]3[C@@H](O)C[C@H](O[C@H]4CC[C@@]5(C)[C@H](CC[C@@H]6[C@@H]5CC[C@]5(C)[C@@H](C7=CC(=O)OC7)CC[C@]65O)C4)O[C@@H]3C)O[C@@H]2C)C[C@H](O)[C@@H]1O [Digitoxin]
- remaining activity at 3.75 µM ([1]; Well no.=3463): 105%
- remaining activity at 1.25 µM ([2]; Well no.=3463): 104%

SMILES: O=Nc1c(-c2c(O)[nH]c3ccccc23)[nH]c2ccccc12 [Indirubin-3'-oxime]
- remaining activity at 3.75 µM ([1]; Well no.=668): 92.9%
- remaining activity at 1.25 µM ([2]; Well no.=668): 95.2%

SMILES: CCCCC[C@H](O)/C=C/C=C/C=C/[C@H](O)C/C=C\CCCC(=O)O [8(R),15(S)-DIHETE all trans]
- remaining activity at 3.75 µM ([1]; Well no.=4377): 105%
- remaining activity at 1.25 µM ([2]; Well no.=4377): 102%

SMILES: CCC(C)(Oc1ccc(C2(c3ccc(OC(C)(CC)C(=O)O)cc3)CCCCC2)cc1)C(=O)O (centres unmarked) [Clinofibrate]
- remaining activity at 3.75 µM ([1]; Well no.=5332): 98.1%
- remaining activity at 1.25 µM ([2]; Well no.=5332): 96.6%

SMILES: COc1ccc(-c2ccc3cc(C(=O)O)ccc3c2)cc1[C@]12C[C@H]3C[C@H](C[C@H](C3)C1)C2 [Adapalene]
- remaining activity at 3.75 µM ([1]; Well no.=1939): 103%
- remaining activity at 1.25 µM ([2]; Well no.=1939): 99.2%

SMILES: Nc1ncnc2c1c(I)cn2[C@@H]1O[C@H](CO)[C@@H](O)[C@H]1O [5-Iodotubercidin]
- remaining activity at 3.75 µM ([1]; Well no.=2479): 101%
- remaining activity at 1.25 µM ([2]; Well no.=2479): 100%

SMILES: N#C/C(=C\c1c[nH]c2ccccc12)C(=O)c1ccc(O)c(O)c1 [Tyrphostin AG 808]
- remaining activity at 3.75 µM ([1]; Well no.=1433): 97.2%
- remaining activity at 1.25 µM ([2]; Well no.=1433): 98.9%

SMILES: COc1ccc2c(c1)[C@]13CCCC[C@@H]1[C@H](C2)N(C)CC3 [Dextromethorphan (hydrobromide hydrate)]
- remaining activity at 3.75 µM ([1]; Well no.=8295): 96.5%
- remaining activity at 1.25 µM ([2]; Well no.=8295): 101%

SMILES: CCCCCCCCCCCCCCCCCC(=O)O [Octadecanoic acid]
- remaining activity at 3.75 µM ([1]; Well no.=4314): 96.8%
- remaining activity at 1.25 µM ([2]; Well no.=4314): 101%

SMILES: CC(C)NCC(O)c1ccc(NS(C)(=O)=O)cc1 (centres unmarked) [Sotalol (hydrochloride)]
- remaining activity at 3.75 µM ([1]; Well no.=6363): 98.6%
- remaining activity at 1.25 µM ([2]; Well no.=6363): 100%

SMILES: N[C@H]1CONC1=O [L-Cycloserine]
- remaining activity at 3.75 µM ([1]; Well no.=187): 101%
- remaining activity at 3.75 µM ([1]; Well no.=3185): 102%
- remaining activity at 1.25 µM ([2]; Well no.=187): 104%
- remaining activity at 1.25 µM ([2]; Well no.=3185): 103%

SMILES: CCCCCCCCCCCCCC(=O)N[C@H](C)[C@@H](O)c1ccccc1 [D-erythro MAPP]
- remaining activity at 3.75 µM ([1]; Well no.=4257): 98.9%
- remaining activity at 1.25 µM ([2]; Well no.=4257): 105%

SMILES: Cc1ccccc1N(C)C(=O)c1ccc([S+]([O-])c2nccs2)c([N+](=O)[O-])c1 (centres unmarked) [SB-268262]
- remaining activity at 3.75 µM ([1]; Well no.=5777): 100%
- remaining activity at 1.25 µM ([2]; Well no.=5777): 99.5%

SMILES: CC(C)[C@H]1C(=O)O[C@@H]2CCN3CC=C(COC(=O)[C@](C)(O)[C@]1(C)O)[C@H]23 [Trichodesmine]
- remaining activity at 3.75 µM ([1]; Well no.=3205): 106%
- remaining activity at 1.25 µM ([2]; Well no.=3205): 105%

SMILES: COC(=O)[C@H](CCCCn1cccc1CCC(=O)O)NC(=O)CNC(C)=O [CEP dipeptide 1]
- remaining activity at 3.75 µM ([1]; Well no.=8606): 96.4%
- remaining activity at 1.25 µM ([2]; Well no.=8606): 98.6%

SMILES: CN(CCOc1ccc(CC2SC(=O)NC2=O)cc1)c1ccccn1 (centres unmarked) [Rosiglitazone maleate]
- remaining activity at 3.75 µM ([1]; Well no.=1651): 105%
- remaining activity at 1.25 µM ([2]; Well no.=1651): 104%

SMILES: COc1ccc(/C=C/c2cc(O)cc(O[C@@H]3O[C@H](CO)[C@@H](O)[C@H](O)[C@H]3O)c2)cc1O [Rhapontin]
- remaining activity at 3.75 µM ([1]; Well no.=3300): 101%
- remaining activity at 1.25 µM ([2]; Well no.=3300): 102%

SMILES: NC(N)=N[C@@H](CCC(=O)O)C(=O)O [alpha-Guanidinoglutaric acid]
- remaining activity at 3.75 µM ([1]; Well no.=669): 96.1%
- remaining activity at 1.25 µM ([2]; Well no.=669): 93.5%

SMILES: Cc1ccc(F)cc1C(=O)Nc1ccc(C(=O)N2Cc3cccn3Cc3ccccc32)c(Cl)c1 [N-[3-chloro-4-(5H-pyrrolo[2,1-c][1,4]benzodiazepin-10(11H)-ylcarbonyl)phenyl]-5-fluoro-2-methylbenzamide]
- remaining activity at 3.75 µM ([1]; Well no.=5601): 107%
- remaining activity at 1.25 µM ([2]; Well no.=5601): 103%

SMILES: CCCCN1C[C@H](O)[C@@H](O)[C@H](O)[C@H]1CO [Miglustat]
- remaining activity at 3.75 µM ([1]; Well no.=2252): 95.8%
- remaining activity at 1.25 µM ([2]; Well no.=2252): 97.5%
